Reference: PubChem BioAssay AID2060495 (Molecular Pharmacology Branch, DTP, NCI, 2025)
Blank lines part the entries; values can stand above or below the molecule they belong to.

Test system: 521955-158-R2-J5-PDC complex spheroid viability
Assay: Anticancer human tumor 521955-158-R2-J5-PDC patient-derived pancreatic carcinoma cell line growth inhibition [GQUAD]
Conditions: for IC50: curve of first compound; for viability, T/C: stronger effect = lower value
Summary of the method: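 Viability of tumor cells grown as complex spheroids with endothelial and stromal cells, exposed to drug combinations. Top concentration at or near clinical Cmax (else 10 microM), diluted in half-log increments.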

[1] = second compound 0.0316 µM, first compound 0.0316 µM
[2] = second compound 0.0316 µM, first compound 0.1 µM
[3] = second compound 0.0316 µM, first compound 0.316 µM
[4] = second compound 0.0316 µM, first compound 1 µM
[5] = second compound 0.0316 µM, first compound 3.16 µM
[6] = second compound 0.0316 µM, first compound 10 µM
[7] = second compound 0.1 µM, first compound 0.0316 µM
[8] = second compound 0.1 µM, first compound 0.1 µM
[9] = second compound 0.1 µM, first compound 0.316 µM
[10] = second compound 0.1 µM, first compound 1 µM
[11] = second compound 0.1 µM, first compound 3.16 µM
[12] = second compound 0.1 µM, first compound 10 µM
[13] = second compound 0.316 µM, first compound 0.0316 µM
[14] = second compound 0.316 µM, first compound 0.1 µM
[15] = second compound 0.316 µM, first compound 0.316 µM
[16] = second compound 0.316 µM, first compound 1 µM
[17] = second compound 0.316 µM, first compound 3.16 µM
[18] = second compound 0.316 µM, first compound 10 µM
[19] = second compound 1 µM, first compound 0.0316 µM
[20] = second compound 1 µM, first compound 0.1 µM
[21] = second compound 1 µM, first compound 0.316 µM
[22] = second compound 1 µM, first compound 1 µM
[23] = second compound 1 µM, first compound 3.16 µM
[24] = second compound 1 µM, first compound 10 µM
[25] = second compound 3.16 µM, first compound 0.0316 µM
[26] = second compound 3.16 µM, first compound 0.1 µM
[27] = second compound 3.16 µM, first compound 0.316 µM
[28] = second compound 3.16 µM, first compound 1 µM
[29] = second compound 3.16 µM, first compound 3.16 µM
[30] = second compound 3.16 µM, first compound 10 µM
[31] = second compound 10 µM, first compound 0.0316 µM
[32] = second compound 10 µM, first compound 0.1 µM
[33] = second compound 10 µM, first compound 0.316 µM
[34] = second compound 10 µM, first compound 1 µM
[35] = second compound 10 µM, first compound 3.16 µM
[36] = second compound 10 µM, first compound 10 µM
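Note: spheroids exposed to agents for one week before reading.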
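Throughout, for viability, T/C: 100% = DMSO vehicle control viability.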

SMILES: CC(C)n1c(=O)n(C)c2cnc3cc(F)c(-c4ccc(OCCCN5CCCCC5)nc4)cc3c21 + CN(C)c1ccc(Nc2c3ccc(NC(=O)CCN4CCCC4)cc3nc3cc(NC(=O)CCN4CCCC4)ccc23)cc1
IC50 (second compound 0.0316 µM): > 10000 nM
IC50 (second compound 0.1 µM): > 10000 nM
IC50 (second compound 0.316 µM): > 10000 nM
IC50 (second compound 1 µM): > 10000 nM
IC50 (second compound 3.16 µM): 8350 nM
IC50 (second compound 10 µM): 288 nM
viability, T/C [1]: 117%
viability, T/C [2]: 108%
viability, T/C [3]: 110%
viability, T/C [4]: 93.5%
viability, T/C [5]: 115%
viability, T/C [6]: 109%
viability, T/C [7]: 98.6%
viability, T/C [8]: 105%
viability, T/C [9]: 101%
viability, T/C [10]: 95.3%
viability, T/C [11]: 116%
viability, T/C [12]: 106%
viability, T/C [13]: 101%
viability, T/C [14]: 103%
viability, T/C [15]: 91%
viability, T/C [16]: 107%
viability, T/C [17]: 115%
viability, T/C [18]: 85.2%
viability, T/C [19]: 112%
viability, T/C [20]: 90.2%
viability, T/C [21]: 77%
viability, T/C [22]: 96.8%
viability, T/C [23]: 97.5%
viability, T/C [24]: 86%
viability, T/C [25]: 101%
viability, T/C [26]: 81%
viability, T/C [27]: 63.6%
viability, T/C [28]: 63.7%
viability, T/C [29]: 55.1%
viability, T/C [30]: 46.7%
viability, T/C [31]: 64%
viability, T/C [32]: 57%
viability, T/C [33]: 51.2%
viability, T/C [34]: 34.8%
viability, T/C [35]: 22%
viability, T/C [36]: 5.89%

SMILES: COc1cc(C2c3cc4c(cc3C(OC3OC5COC(C)OC5C(O)C3O)C3COC(=O)C23)OCO4)cc(OC)c1O (stereo unspecified) + CN(C)c1ccc(Nc2c3ccc(NC(=O)CCN4CCCC4)cc3nc3cc(NC(=O)CCN4CCCC4)ccc23)cc1
IC50 (second compound 0.0316 µM): 771 nM
IC50 (second compound 0.1 µM): 808 nM
IC50 (second compound 0.316 µM): 689 nM
IC50 (second compound 1 µM): 650 nM
IC50 (second compound 3.16 µM): 551 nM
IC50 (second compound 10 µM): 594 nM
viability, T/C [1]: 109%
viability, T/C [2]: 89.3%
viability, T/C [3]: 65%
viability, T/C [4]: 45.1%
viability, T/C [5]: 30.1%
viability, T/C [6]: 17.1%
viability, T/C [7]: 82.9%
viability, T/C [8]: 104%
viability, T/C [9]: 76.5%
viability, T/C [10]: 43.1%
viability, T/C [11]: 32.5%
viability, T/C [12]: 20.1%
viability, T/C [13]: 94.2%
viability, T/C [14]: 85.3%
viability, T/C [15]: 69.5%
viability, T/C [16]: 40.1%
viability, T/C [17]: 25.6%
viability, T/C [18]: 18.2%
viability, T/C [19]: 89.5%
viability, T/C [20]: 93.5%
viability, T/C [21]: 55.8%
viability, T/C [22]: 45.8%
viability, T/C [23]: 28%
viability, T/C [24]: 19.2%
viability, T/C [25]: 97.5%
viability, T/C [26]: 78.9%
viability, T/C [27]: 61.4%
viability, T/C [28]: 39%
viability, T/C [29]: 26%
viability, T/C [30]: 19.9%
viability, T/C [31]: 79.1%
viability, T/C [32]: 71%
viability, T/C [33]: 55.2%
viability, T/C [34]: 43%
viability, T/C [35]: 36.1%
viability, T/C [36]: 23.3%

IC50 (second compound 0.0316 µM): 113 nM
IC50 (second compound 0.1 µM): 127 nM
IC50 (second compound 0.316 µM): < 31.6 nM
IC50 (second compound 1 µM): < 31.6 nM
IC50 (second compound 3.16 µM): < 31.6 nM
IC50 (second compound 10 µM): < 31.6 nM
SMILES: COc1cccc2c1C(=O)c1c(O)c3c(c(O)c1C2=O)CC(O)(C(=O)CO)CC3OC1CC(N)C(O)C(C)O1 (stereo unspecified) + Cc1cnc(CNC(=O)c2c(=O)c3ccc(N4CCCN(C)CC4)nc3n3c2sc2ccccc23)cn1
viability, T/C [1]: 78.2%
viability, T/C [2]: 48%
viability, T/C [3]: 38.4%
viability, T/C [4]: 10.9%
viability, T/C [5]: 4.19%
viability, T/C [6]: 0.5%
viability, T/C [7]: 53.3%
viability, T/C [8]: 59.6%
viability, T/C [9]: 26.3%
viability, T/C [10]: 10.6%
viability, T/C [11]: 1.38%
viability, T/C [12]: 0.74%
viability, T/C [13]: 36.3%
viability, T/C [14]: 37.1%
viability, T/C [15]: 20.9%
viability, T/C [16]: 8.92%
viability, T/C [17]: 0.18%
viability, T/C [18]: 0.39%
viability, T/C [19]: 20.7%
viability, T/C [20]: 20.1%
viability, T/C [21]: 14.5%
viability, T/C [22]: 8.17%
viability, T/C [23]: 0.08%
viability, T/C [24]: 0.07%
viability, T/C [25]: 18.5%
viability, T/C [26]: 18.4%
viability, T/C [27]: 15%
viability, T/C [28]: 5.89%
viability, T/C [29]: 0.12%
viability, T/C [30]: 0.13%
viability, T/C [31]: 18.4%
viability, T/C [32]: 14.4%
viability, T/C [33]: 16.2%
viability, T/C [34]: 4.97%
viability, T/C [35]: 0.21%
viability, T/C [36]: 0.19%
